Test results from paper PMC7520961, “Safety evaluation of the interchangeable use of robenacoxib in commercially-available tablets and solution for injection in cats” (BMC Veterinary Research, 2020).
“Also recorded” adds a separate entry of the source.

What was measured:
cats = conditions: in vivo
[1] = Toxicokinetics: robenacoxib concentration in blood by LC-MS/MS; assay type: in vivo, cat
Procedure: Approximately 0.5 mL of whole blood was collected from animals via the jugular vein and placed in tubes containing K2EDTA. Samples were collected within 30 minutes prior to dosing and at 0.75, and 4 hours postdose on Days 1, 4, 7, 10, 17, 30, and 37. A single 0.5 mL sample was collected from all animals 4 hours postdose on Days 8, 11, 14, 28, 31, and 34. The animals were fasted for predose and 0.75 hour blood collections and were fed 2 to 3 hours after dose administration. Samples were stored frozen (-10 to […]) within approximately 1 hour after collection until analyzed. Day 1 blood samples were inadvertently processed to plasma and therefore not analyzed.
Robenacoxib was quantitatively analyzed in blood using a validated analytical method involving liquid chromatography with tandem mass spectrometry detection (LC-MS/MS) that has been previously describe. Performance of the method was monitored by low, medium and high quality control samples, where inter-run %RSD (relative standard deviation) was 8.3, 7.4, and 5.8, respectively.
Only abbreviated toxicokinetic sampling was performed so as not to interfere with the primary objective of the study. Concentrations below the limit of quantification were considered 0.

For CCc1ccc(Nc2c(F)c(F)cc(F)c2F)c(CC(=O)O)c1 [robenacoxib], the “opthalmoscopic, physical and neurological examinations” value (cats) was “no treatment-related effects”, the “plasma robenacoxib concentration (mean ± SD)” value ([1]; 1X, SC 2.0 mg/kg/day, Study Day 8, 4 h postdose) was 98.2 ± 60.7 ng/mL and the “plasma robenacoxib concentration (mean ± SD)” value ([1]; 1X, SC 2.0 mg/kg/day, Study Day 10, 0.75 h postdose) was 1124.1 ± 325.9 ng/mL. The “plasma robenacoxib concentration (mean ± SD)” value ([1]; 1X, SC 2.0 mg/kg/day, Study Day 10, 4 h postdose) was 79.1 ± 51.5 ng/mL, the “plasma robenacoxib concentration (mean ± SD)” value ([1]; 1X, SC 2.0 mg/kg/day, Study Day 28, 4 h postdose) was 117.2 ± 86.1 ng/mL and the “plasma robenacoxib concentration (mean ± SD)” value ([1]; 1X, SC 2.0 mg/kg/day, Study Day 30, 0.75 h postdose) was 1358.6 ± 254.5 ng/mL. The “plasma robenacoxib concentration (mean ± SD)” value ([1]; 1X, SC 2.0 mg/kg/day, Study Day 30, 4 h postdose) was 94.8 ± 68.3 ng/mL, the “plasma robenacoxib concentration (mean ± SD)” value ([1]; 1X, oral ≥2.4 mg/kg/day, Study Day 4, 0.75 h postdose) was 2593.1 ± 909.5 ng/mL and the “plasma robenacoxib concentration (mean ± SD)” value ([1]; 1X, oral ≥2.4 mg/kg/day, Study Day 4, 4 h postdose) was 22.9 ± 11.6 ng/mL. For the same compound, the “plasma robenacoxib concentration (mean ± SD)” value ([1]; 1X, oral ≥2.4 mg/kg/day, Study Day 7, 0.75 h postdose) was 2591.3 ± 875.5 ng/mL, the “plasma robenacoxib concentration (mean ± SD)” value ([1]; 1X, oral ≥2.4 mg/kg/day, Study Day 7, 4 h postdose) was 26.9 ± 27.4 ng/mL and the “plasma robenacoxib concentration (mean ± SD)” value ([1]; 1X, oral ≥2.4 mg/kg/day, Study Day 11, 4 h postdose) was 34.9 ± 36.2 ng/mL. For the same compound, the “plasma robenacoxib concentration (mean ± SD)” value ([1]; 1X, oral ≥2.4 mg/kg/day, Study Day 14, 4 h postdose) was 19.0 ± 7.3 ng/mL, the “plasma robenacoxib concentration (mean ± SD)” value ([1]; 1X, oral ≥2.4 mg/kg/day, Study Day 17, 0.75 h postdose) was 2811.3 ± 1502.1 ng/mL and the “plasma robenacoxib concentration (mean ± SD)” value ([1]; 1X, oral ≥2.4 mg/kg/day, Study Day 17, 4 h postdose) was 42.7 ± 49.7 ng/mL. For the same compound, the “plasma robenacoxib concentration (mean ± SD)” value ([1]; 1X, oral ≥2.4 mg/kg/day, Study Day 31, 4 h postdose) was 27.2 ± 16.0 ng/mL, the “plasma robenacoxib concentration (mean ± SD)” value ([1]; 1X, oral ≥2.4 mg/kg/day, Study Day 34, 4 h postdose) was 35.3 ± 28.5 ng/mL and the “plasma robenacoxib concentration (mean ± SD)” value ([1]; 1X, oral ≥2.4 mg/kg/day, Study Day 37, 0.75 h postdose) was 2717.6 ± 1589.6 ng/mL. For the same compound, the “plasma robenacoxib concentration (mean ± SD)” value ([1]; 1X, oral ≥2.4 mg/kg/day, Study Day 37, 4 h postdose) was 90.4 ± 106.6 ng/mL, the “plasma robenacoxib concentration (mean ± SD)” value ([1]; 2X, SC 4.0 mg/kg/day, Study Day 8, 4 h postdose) was 233.6 ± 215.8 ng/mL and the “plasma robenacoxib concentration (mean ± SD)” value ([1]; 2X, SC 4.0 mg/kg/day, Study Day 10, 0.75 h postdose) was 1481.3 ± 359.7 ng/mL. For the same compound, the “plasma robenacoxib concentration (mean ± SD)” value ([1]; 2X, SC 4.0 mg/kg/day, Study Day 10, 4 h postdose) was 263.1 ± 249.4 ng/mL, the “plasma robenacoxib concentration (mean ± SD)” value ([1]; 2X, SC 4.0 mg/kg/day, Study Day 28, 4 h postdose) was 236.6 ± 130.2 ng/mL and the “plasma robenacoxib concentration (mean ± SD)” value ([1]; 2X, SC 4.0 mg/kg/day, Study Day 30, 0.75 h postdose) was 1821.6 ± 817.9 ng/mL. For the same compound, the “plasma robenacoxib concentration (mean ± SD)” value ([1]; 2X, SC 4.0 mg/kg/day, Study Day 30, 4 h postdose) was 326.0 ± 276.7 ng/mL, the “plasma robenacoxib concentration (mean ± SD)” value ([1]; 2X, oral ≥4.8 mg/kg/day, Study Day 4, 0.75 h postdose) was 5177.5 ± 2229.5 ng/mL and the “plasma robenacoxib concentration (mean ± SD)” value ([1]; 2X, oral ≥4.8 mg/kg/day, Study Day 4, 4 h postdose) was 54.2 ± 28.5 ng/mL. The “plasma robenacoxib concentration (mean ± SD)” value ([1]; 2X, oral ≥4.8 mg/kg/day, Study Day 7, 0.75 h postdose) was 3383.8 ± 1818.8 ng/mL, the “plasma robenacoxib concentration (mean ± SD)” value ([1]; 2X, oral ≥4.8 mg/kg/day, Study Day 7, 4 h postdose) was 67.8 ± 58.5 ng/mL and the “plasma robenacoxib concentration (mean ± SD)” value ([1]; 2X, oral ≥4.8 mg/kg/day, Study Day 11, 4 h postdose) was 66.6 ± 57.4 ng/mL. For the same compound, the “plasma robenacoxib concentration (mean ± SD)” value ([1]; 2X, oral ≥4.8 mg/kg/day, Study Day 14, 4 h postdose) was 53.8 ± 59.0 ng/mL, the “plasma robenacoxib concentration (mean ± SD)” value ([1]; 2X, oral ≥4.8 mg/kg/day, Study Day 17, 0.75 h postdose) was 4160.0 ± 1166.0 ng/mL and the “plasma robenacoxib concentration (mean ± SD)” value ([1]; 2X, oral ≥4.8 mg/kg/day, Study Day 17, 4 h postdose) was 64.5 ± 54.7 ng/mL. The “plasma robenacoxib concentration (mean ± SD)” value ([1]; 2X, oral ≥4.8 mg/kg/day, Study Day 31, 4 h postdose) was 101.5 ± 152.6 ng/mL, the “plasma robenacoxib concentration (mean ± SD)” value ([1]; 2X, oral ≥4.8 mg/kg/day, Study Day 34, 4 h postdose) was 92.2 ± 58.5 ng/mL and the “plasma robenacoxib concentration (mean ± SD)” value ([1]; 2X, oral ≥4.8 mg/kg/day, Study Day 37, 0.75 h postdose) was 4009.4 ± 1765.2 ng/mL. For the same compound, the “plasma robenacoxib concentration (mean ± SD)” value ([1]; 2X, oral ≥4.8 mg/kg/day, Study Day 37, 4 h postdose) was 80.0 ± 62.6 ng/mL, the “plasma robenacoxib concentration (mean ± SD)” value ([1]; 3X, SC 6.0 mg/kg/day, Study Day 8, 4 h postdose) was 723.3 ± 250.8 ng/mL and the “plasma robenacoxib concentration (mean ± SD)” value ([1]; 3X, SC 6.0 mg/kg/day, Study Day 10, 0.75 h postdose) was 2461.3 ± 1075.8 ng/mL. The “plasma robenacoxib concentration (mean ± SD)” value ([1]; 3X, SC 6.0 mg/kg/day, Study Day 10, 4 h postdose) was 390.2 ± 236.2 ng/mL, the “plasma robenacoxib concentration (mean ± SD)” value ([1]; 3X, SC 6.0 mg/kg/day, Study Day 28, 4 h postdose) was 394.8 ± 187.7 ng/mL and the “plasma robenacoxib concentration (mean ± SD)” value ([1]; 3X, SC 6.0 mg/kg/day, Study Day 30, 0.75 h postdose) was 2878.8 ± 831.4 ng/mL. The “plasma robenacoxib concentration (mean ± SD)” value ([1]; 3X, SC 6.0 mg/kg/day, Study Day 30, 4 h postdose) was 418.7 ± 246.2 ng/mL, the “plasma robenacoxib concentration (mean ± SD)” value ([1]; 3X, oral ≥7.2 mg/kg/day, Study Day 4, 0.75 h postdose) was 5511.8 ± 3389.8 ng/mL and the “plasma robenacoxib concentration (mean ± SD)” value ([1]; 3X, oral ≥7.2 mg/kg/day, Study Day 4, 4 h postdose) was 98.0 ± 48.6 ng/mL. For the same compound, the “plasma robenacoxib concentration (mean ± SD)” value ([1]; 3X, oral ≥7.2 mg/kg/day, Study Day 7, 0.75 h postdose) was 7267.5 ± 4006.6 ng/mL, the “plasma robenacoxib concentration (mean ± SD)” value ([1]; 3X, oral ≥7.2 mg/kg/day, Study Day 7, 4 h postdose) was 76.2 ± 32.2 ng/mL and the “plasma robenacoxib concentration (mean ± SD)” value ([1]; 3X, oral ≥7.2 mg/kg/day, Study Day 11, 4 h postdose) was 99.2 ± 36.3 ng/mL. The “plasma robenacoxib concentration (mean ± SD)” value ([1]; 3X, oral ≥7.2 mg/kg/day, Study Day 14, 4 h postdose) was 79.1 ± 38.0 ng/mL, the “plasma robenacoxib concentration (mean ± SD)” value ([1]; 3X, oral ≥7.2 mg/kg/day, Study Day 17, 0.75 h postdose) was 5798.8 ± 3218.0 ng/mL and the “plasma robenacoxib concentration (mean ± SD)” value ([1]; 3X, oral ≥7.2 mg/kg/day, Study Day 17, 4 h postdose) was 108.5 ± 67.8 ng/mL. The “plasma robenacoxib concentration (mean ± SD)” value ([1]; 3X, oral ≥7.2 mg/kg/day, Study Day 31, 4 h postdose) was 94.7 ± 69.7 ng/mL, the “plasma robenacoxib concentration (mean ± SD)” value ([1]; 3X, oral ≥7.2 mg/kg/day, Study Day 34, 4 h postdose) was 84.2 ± 30.3 ng/mL and the “plasma robenacoxib concentration (mean ± SD)” value ([1]; 3X, oral ≥7.2 mg/kg/day, Study Day 37, 0.75 h postdose) was 6460.0 ± 3839.3 ng/mL. For the same compound, the “plasma robenacoxib concentration (mean ± SD)” value ([1]; 3X, oral ≥7.2 mg/kg/day, Study Day 37, 4 h postdose) was 123.2 ± 121.7 ng/mL, the “oral administration vs subcutaneous injection, average concentrations” value ([1]; all dose groups) was “higher average 0.75 h concentrations and lower average 4 h concentrations” and the accumulation of robenacoxib ([1]; comparing concentrations 4 h post oral administration (Days 4, 7, 11, 14, 17, 31, 34, 37)) was “no accumulation observed after Day 4; also recorded: No robenacoxib accumulation was observed”.
